PubChem BioAssay AID330 (DTP/NCI, 2004)
Values joined by “and” are separate entries in the source; they are usually repeats but may differ in a detail not shown here. Identical values can stand only once. Inconclusive results and toxic doses are left out. The calls were made as follows: active = survival T/C of 150% or more; inactive = T/C below 125% in these data.

System: P388 leukemia ip, CD2F1 mice, survival T/C
Assay: NCI In Vivo Anticancer Drug Screen. Data for tumor model P388 Leukemia (intraperitoneal) in CD2F1 (CDF1) mice
Details: endpoint: median survival time, higher = longer survival
How it was run: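 Mice carrying the transplanted tumor received test compound or vehicle. Survival was recorded in each group, and the value is the treated-group measurement divided by that of the vehicle-treated control group.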

[1] = dose: 50.0 mg/kg/injection, schedule: Q01DX005 (ip), vehicle: Klucel (hydroxypropylcellulose) (HPC)
[2] = dose: 100.0 mg/kg/injection, schedule: Q01DX005 (ip), vehicle: Klucel (hydroxypropylcellulose) (HPC)
[3] = dose: 200.0 mg/kg/injection, schedule: Q01DX005 (ip), vehicle: Klucel (hydroxypropylcellulose) (HPC)
[4] = dose: 12.5 mg/kg/injection, schedule: Q01DX009 (ip), vehicle: saline with Tween-80
[5] = dose: 25.0 mg/kg/injection, schedule: Q01DX009 (ip), vehicle: saline with Tween-80
[6] = dose: 60.0 mg/kg/injection, schedule: Q01DX005 (ip), vehicle: saline with Tween-80
[7] = dose: 120.0 mg/kg/injection, schedule: Q01DX005 (ip), vehicle: saline with Tween-80
[8] = dose: 240.0 mg/kg/injection, schedule: Q01DX005 (ip), vehicle: saline with Tween-80
[9] = dose: 100.0 mg/kg/injection, schedule: Q01DX009 (ip), vehicle: saline with Tween-80
[10] = dose: 200.0 mg/kg/injection, schedule: Q01DX009 (ip), vehicle: saline with Tween-80
[11] = dose: 50.0 mg/kg/injection, schedule: Q01DX009 (ip), vehicle: saline
[12] = dose: 50.0 mg/kg/injection, schedule: Q01DX005 (ip), vehicle: saline with Tween-80
[13] = dose: 100.0 mg/kg/injection, schedule: Q01DX005 (ip), vehicle: saline with Tween-80
[14] = dose: 50.0 mg/kg/injection, schedule: Q01DX009 (ip), vehicle: saline with Tween-80
[15] = dose: 100.0 mg/kg/injection, schedule: Q04DX002 (ip), vehicle: Klucel (hydroxypropylcellulose) (HPC)
[16] = dose: 200.0 mg/kg/injection, schedule: Q04DX002 (ip), vehicle: Klucel (hydroxypropylcellulose) (HPC)
[17] = dose: 400.0 mg/kg/injection, schedule: Q04DX002 (ip), vehicle: Klucel (hydroxypropylcellulose) (HPC)
[18] = dose: 100.0 mg/kg/injection, schedule: Q01DX009 (ip), vehicle: saline
[19] = dose: 200.0 mg/kg/injection, schedule: Q01DX009 (ip), vehicle: saline

Measured: T/C

CCC(C)P(=O)(N1CC1C)N1CC1C (stereo not drawn)
inactive: dose: 1.5 mg/kg/injection, schedule: Q01DX009 (ip), vehicle: saline 104 % of control | dose: 3.0 mg/kg/injection, schedule: Q01DX009 (ip), vehicle: saline 109 % of control | dose: 6.0 mg/kg/injection, schedule: Q01DX009 (ip), vehicle: saline 109 % of control | dose: 12.5 mg/kg/injection, schedule: Q04DX003 (ip), vehicle: saline 95 % of control | dose: 25.0 mg/kg/injection, schedule: Q04DX003 (ip), vehicle: saline 95 % of control | dose: 50.0 mg/kg/injection, schedule: Q04DX003 (ip), vehicle: saline 113 % of control

COc1ccc(CCN2C(=O)CC(CC3=NCCc4cc(OC)c(OC)cc43)CC2=O)cc1OC
inactive: dose: 50.0 mg/kg/injection, schedule: Q01DX005 (ip), vehicle: saline 103 % of control | dose: 100.0 mg/kg/injection, schedule: Q01DX005 (ip), vehicle: saline 95 % of control

O=C1c2ccccc2C(=C(c2ccccc2)c2ccccc2)c2ccccc21
inactive: [1] 89 % of control | [2] 88 % of control | [3] 86 % of control

Nc1nc2c(c(=O)[nH]1)NC(CCNc1ccc(C(=O)O)cc1)CN2 (stereo not drawn)
inactive: [4] 104 % of control | dose: 12.5 mg/kg/injection, schedule: Q04DX003 (ip), vehicle: saline with Tween-80 90 % of control | [5] 113 % of control | dose: 25.0 mg/kg/injection, schedule: Q04DX003 (ip), vehicle: saline with Tween-80 95 % of control | dose: 50.0 mg/kg/injection, schedule: Q04DX003 (ip), vehicle: saline with Tween-80 113 % of control

O=C(O)CCC12CCC(=O)N1Cc1ccccc1C2=O (stereo not drawn)
inactive: [6] 107 % of control | [7] 110 % of control | [8] 109 % of control

NC(=O)N/N=C(/Cc1nc2ccccc2nc1C/C(=N/NC(N)=O)c1cccc2ccccc12)c1cccc2ccccc12
inactive: [6] 99 % of control and 95 % of control | [7] 100 % of control | [8] 100 % of control and 91 % of control

CC1CC(O)C2C1CC1CCC2(C)OC1(C)C (stereo not drawn)
inactive: [9] 105 % of control | [10] 105 % of control | dose: 400.0 mg/kg/injection, schedule: Q01DX009 (ip), vehicle: saline with Tween-80 100 % of control

COc1cccc2c1C(=O)C=C(c1ccccc1)S2(=O)=O
inactive: [1] 111 % of control | [2] 111 % of control

CN1CCCC1=O
inactive: [11] 95 % of control

CCOC(=O)CC1CC(C)(C(=O)OCC)C(=O)CC1=O (stereo not drawn)
inactive: [12] 102 % of control | [13] 104 % of control | dose: 200.0 mg/kg/injection, schedule: Q01DX005 (ip), vehicle: saline with Tween-80 95 % of control

CCOC(=O)NC(=S)Nc1cccs1
inactive: [14] 91 % of control | [9] 100 % of control | [10] 101 % of control

CCCCCCCCCCCCCCCc1nc(SCC(=O)OC)n[nH]1
inactive: [6] 99 % of control | [7] 99 % of control | [8] 98 % of control

Cc1cccc(=O)[n-]1.Cc1cccc(=O)[n-]1.Cc1cccc(=O)[n-]1.Cc1cccc(=O)[n-]1.[Rh+2].[Rh+2]
inactive: [15] 103 % of control | [16] 102 % of control | [17] 100 % of control

COc1nc(NCC(C)O)nc(NCC(C)O)n1 (stereo not drawn)
inactive: [11] 100 % of control | [18] 89 % of control | [19] 99 % of control

Cc1c(C)c(C)c2c(c1C)C(=O)c1c3c(c4c(c1C2=O)CCCC4)CCCC3
inactive: [5] 108 % of control | [14] 103 % of control | [9] 99 % of control

CS(=O)(=O)OCCBr
inactive: [4] 105 % of control | dose: 25.0 mg/kg/injection, schedule: Q01DX005 (ip), vehicle: saline with Tween-80 108 % of control | [5] 105 % of control | [12] 110 % of control | [14] 114 % of control | dose: 100.0 mg/kg/injection, schedule: Q01DX001 (ip), vehicle: saline with Tween-80 103 % of control | [13] 106 % of control | [9] 116 % of control

CCOC(=O)C1n2c(=O)n(-c3ccccc3)c(=O)n21
inactive: dose: 50.0 mg/kg/injection, schedule: Q01DX005 (ip), vehicle: Klucel + Tween-80 96 % of control | dose: 100.0 mg/kg/injection, schedule: Q01DX005 (ip), vehicle: Klucel + Tween-80 87 % of control | dose: 200.0 mg/kg/injection, schedule: Q01DX005 (ip), vehicle: Klucel + Tween-80 93 % of control

O=C(O)C(Cc1ccccc1)Nc1ncnc2nc[nH]c12 (stereo not drawn)
inactive: [1] 93 % of control | [2] 100 % of control | [3] 100 % of control

c1ccc(-c2[nH]nc3nccnc23)cc1
inactive: [1] 99 % of control | [2] 98 % of control | [3] 98 % of control

Cc1ccc(S(=O)(=O)OCCC(C)(C)C)cc1
inactive: [14] 106 % of control | [9] 107 % of control | [10] 111 % of control

N#CC1=C(Nc2ccccc2Cl)SC(c2ccncc2)NC1=O (stereo not drawn)
inactive: dose: 120.0 mg/kg/injection, schedule: Q01DX005 (ip), vehicle: Klucel (hydroxypropylcellulose) (HPC) 111 % of control | dose: 240.0 mg/kg/injection, schedule: Q01DX005 (ip), vehicle: Klucel (hydroxypropylcellulose) (HPC) 105 % of control

O=C1c2c(O)cc(O)cc2OC(c2ccc(O)cc2)C1O (stereo not drawn)
inactive: dose: 9.75 mg/kg/injection, schedule: Q01DX009 (ip), vehicle: saline 100 % of control | dose: 19.5 mg/kg/injection, schedule: Q01DX009 (ip), vehicle: saline 101 % of control | dose: 39.0 mg/kg/injection, schedule: Q01DX009 (ip), vehicle: saline 102 % of control

Cn1c(=O)c2nc(-c3ccc(Cl)c(Cl)c3)cnc2n(C)c1=O
inactive: [15] 96 % of control | [16] 95 % of control | [17] 98 % of control

CC(C)(C)C1=NC(c2ccccc2)N2C(c3ccccc3)NC(c3ccccc3)C1C2c1ccccc1 (stereo not drawn)
inactive: [14] 100 % of control | [9] 93 % of control | [10] 91 % of control

CNCS(=O)(=O)O
inactive: [11] 106 % of control | [18] 101 % of control | [19] 93 % of control

CC1(C)C2CCC(C2)C1C(=O)CCN1CCc2ccccc2C1 (stereo not drawn)
inactive: [4] 106 % of control | [5] 107 % of control | [14] 107 % of control
